According to ChEMBL document CHEMBL1201862, “PubChem BioAssay data set” (2004):
Calls of active or inactive are those of the source.

Columns and labels:
[1] = molecular target: Ion channel NompC (Danio rerio, UniProt Q7T1G6); experiment: Fluorescence counterscreen assay for TRPML3 agonists: dose response cell-based high-throughput screening assay to identify agonists of the transient receptor potential channel N1 (TRPN1). [Related pubchem assays: 1526, 1424, 1448 ]; format: functional
[2] = molecular target: Mucolipin-3 (Homo sapiens, UniProt Q8TDD5); experiment: Dose response cell-based high-throughput screening assay for agonists of the transient receptor potential channel ML3 (TRPML3). [Related pubchem assays: 1526, 1424, 1448 ]; format: functional
Chain of Mucolipin-3 (Q8TDD5 whole entry): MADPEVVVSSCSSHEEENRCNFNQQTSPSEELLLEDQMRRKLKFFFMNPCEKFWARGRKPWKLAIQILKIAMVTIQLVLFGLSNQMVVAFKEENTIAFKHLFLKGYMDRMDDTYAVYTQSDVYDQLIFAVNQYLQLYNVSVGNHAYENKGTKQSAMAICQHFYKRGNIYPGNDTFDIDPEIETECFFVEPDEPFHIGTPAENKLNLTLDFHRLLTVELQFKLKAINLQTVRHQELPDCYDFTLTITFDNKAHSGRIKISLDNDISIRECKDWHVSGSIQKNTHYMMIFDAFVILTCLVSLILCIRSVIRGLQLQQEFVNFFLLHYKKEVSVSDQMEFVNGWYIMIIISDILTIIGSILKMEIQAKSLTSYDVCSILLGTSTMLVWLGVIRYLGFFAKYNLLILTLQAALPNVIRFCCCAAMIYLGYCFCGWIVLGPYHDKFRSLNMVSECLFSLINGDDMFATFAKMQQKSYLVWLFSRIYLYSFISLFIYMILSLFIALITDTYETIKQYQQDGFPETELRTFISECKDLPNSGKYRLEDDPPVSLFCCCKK

[3] = antiviral protection against BTV-induced cell death – arbovirus, BSR cells, confirmation (AID 1250); format: functional;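 also: protection from viral cytopathic effect measured as cell viability by ATP luminescence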
[4] = viability of uninfected HEp-2 cells – cell-based, HTS, cytotoxicity control for RSV inhibitor project, dose response (AID 2410); format: functional; settings: human respiratory syncytial virus
[5] = cells
[6] = molecular target: Cytochrome P450 2C9 (Homo sapiens, UniProt P11712); settings: Potency
Chain of Cytochrome P450 2C9 (P11712 whole entry): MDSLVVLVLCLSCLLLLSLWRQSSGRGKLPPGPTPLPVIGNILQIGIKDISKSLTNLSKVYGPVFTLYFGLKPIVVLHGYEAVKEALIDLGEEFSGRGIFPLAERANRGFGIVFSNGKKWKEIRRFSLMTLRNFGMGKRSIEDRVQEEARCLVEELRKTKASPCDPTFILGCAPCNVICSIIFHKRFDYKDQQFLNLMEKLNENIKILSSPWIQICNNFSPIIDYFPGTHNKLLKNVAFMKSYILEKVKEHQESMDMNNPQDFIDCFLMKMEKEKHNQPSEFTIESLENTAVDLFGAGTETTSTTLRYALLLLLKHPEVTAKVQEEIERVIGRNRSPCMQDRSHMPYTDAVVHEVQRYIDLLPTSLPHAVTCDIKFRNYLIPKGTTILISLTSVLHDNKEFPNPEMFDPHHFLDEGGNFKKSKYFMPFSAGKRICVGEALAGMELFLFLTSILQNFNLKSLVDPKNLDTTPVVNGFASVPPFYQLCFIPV

[7] = Luminescence Cell-Based Dose Confirmation HTS to Identify Inhibitors of Polyadenylation.; format: functional
[8] = Luminescence Cell-Based Dose Response HTS to Identify Inhibitors of 5'UTR Stem-Loop Driven Prion Protein mRNA Translation in H4 Neuroglioblastoma Cells. [Related pubchem assays: 1827 (Project Summary), 1813 (Primary HTS)]; format: functional
[9] = molecular target: Luciferin 4-monooxygenase (Photinus pyralis, UniProt P08659); experiment: inhibition of purified Photinus pyralis luciferase – biochemical, luminescence, dose response (AID 1891)
Chain of Luciferin 4-monooxygenase (P08659 whole entry): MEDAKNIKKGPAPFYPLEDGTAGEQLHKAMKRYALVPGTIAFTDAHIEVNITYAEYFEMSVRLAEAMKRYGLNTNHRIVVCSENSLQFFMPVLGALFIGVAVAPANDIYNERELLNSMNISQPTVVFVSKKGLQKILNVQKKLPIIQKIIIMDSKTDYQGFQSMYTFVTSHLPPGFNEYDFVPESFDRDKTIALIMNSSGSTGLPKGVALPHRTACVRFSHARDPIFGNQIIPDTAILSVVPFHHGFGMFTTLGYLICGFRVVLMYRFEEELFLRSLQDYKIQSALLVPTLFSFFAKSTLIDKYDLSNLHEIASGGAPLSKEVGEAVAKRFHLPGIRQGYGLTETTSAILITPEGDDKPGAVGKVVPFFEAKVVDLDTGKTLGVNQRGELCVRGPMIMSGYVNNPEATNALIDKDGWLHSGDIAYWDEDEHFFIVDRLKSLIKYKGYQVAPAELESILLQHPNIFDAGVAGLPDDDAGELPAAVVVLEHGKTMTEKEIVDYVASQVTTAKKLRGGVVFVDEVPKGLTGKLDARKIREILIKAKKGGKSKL

[10] = alpha-synuclein stem-loop luciferase translation blockers – H4 neuroglioma cells, luminescence, confirmation (AID 1988); format: functional, cell-based
[11] = Luminescence Cell-Based Dose Confirmation HTS to Identify Inhibitors of Platelet Dense Granule Release. [Related pubchem assays: 1663 (Primary HTS), 1678 (Summary of Project)]; format: functional
[12] = molecular target: T1, Heat shock factor protein 1 (Mus musculus, UniProt P38532); experiment: decrease of HSF1-responsive luciferase luminescence – cell-based, NIH3T3, dose retest, confirmation (AID 2382); format: functional;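 also: NIH3T3 fibroblasts with HSF1-driven luciferase reporter stressed by proteasome inhibitor MG132; luminescence from HSF1-driven luciferase expression after 8 hours of MG132 stress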
T1 sequence (P38532 whole entry): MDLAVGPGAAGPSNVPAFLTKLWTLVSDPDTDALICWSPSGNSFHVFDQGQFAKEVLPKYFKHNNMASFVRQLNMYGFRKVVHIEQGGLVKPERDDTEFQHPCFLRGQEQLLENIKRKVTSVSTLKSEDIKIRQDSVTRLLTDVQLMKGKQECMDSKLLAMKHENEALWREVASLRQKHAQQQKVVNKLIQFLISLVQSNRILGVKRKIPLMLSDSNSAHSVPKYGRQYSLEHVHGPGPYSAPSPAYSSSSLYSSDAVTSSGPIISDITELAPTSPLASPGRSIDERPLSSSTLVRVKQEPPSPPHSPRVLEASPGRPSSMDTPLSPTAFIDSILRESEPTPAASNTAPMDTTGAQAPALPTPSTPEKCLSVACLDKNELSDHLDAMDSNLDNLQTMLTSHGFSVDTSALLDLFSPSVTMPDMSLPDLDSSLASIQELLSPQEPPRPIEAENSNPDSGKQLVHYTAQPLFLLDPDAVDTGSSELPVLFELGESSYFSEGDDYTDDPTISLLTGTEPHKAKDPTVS

[13] = Luminescence-based counterscreen assay for KLF5 inhibitors: dose response cell-based high throughput screening assay to identify cytotoxic compounds using the IEC-6 intestinal epithelial cell line. [Related pubchem assays: 1700 (Primary screen.), 1834 (Confirmation screen.), 1858 (Summary AID.), 1905 (Counterscreen.)]; format: functional
[14] = luciferase reporter signal suppression in cells – H4 neuroglioma cells, luminescence, dose response (AID 1990); format: functional, cell-based
[15] = molecular target: Protein-tyrosine kinase 2-beta (Homo sapiens, UniProt Q14289);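 also: potency of inhibitors of PYK2 kinase phosphorylation of poly-GT substrate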
Chain of Protein-tyrosine kinase 2-beta (Q14289 whole entry): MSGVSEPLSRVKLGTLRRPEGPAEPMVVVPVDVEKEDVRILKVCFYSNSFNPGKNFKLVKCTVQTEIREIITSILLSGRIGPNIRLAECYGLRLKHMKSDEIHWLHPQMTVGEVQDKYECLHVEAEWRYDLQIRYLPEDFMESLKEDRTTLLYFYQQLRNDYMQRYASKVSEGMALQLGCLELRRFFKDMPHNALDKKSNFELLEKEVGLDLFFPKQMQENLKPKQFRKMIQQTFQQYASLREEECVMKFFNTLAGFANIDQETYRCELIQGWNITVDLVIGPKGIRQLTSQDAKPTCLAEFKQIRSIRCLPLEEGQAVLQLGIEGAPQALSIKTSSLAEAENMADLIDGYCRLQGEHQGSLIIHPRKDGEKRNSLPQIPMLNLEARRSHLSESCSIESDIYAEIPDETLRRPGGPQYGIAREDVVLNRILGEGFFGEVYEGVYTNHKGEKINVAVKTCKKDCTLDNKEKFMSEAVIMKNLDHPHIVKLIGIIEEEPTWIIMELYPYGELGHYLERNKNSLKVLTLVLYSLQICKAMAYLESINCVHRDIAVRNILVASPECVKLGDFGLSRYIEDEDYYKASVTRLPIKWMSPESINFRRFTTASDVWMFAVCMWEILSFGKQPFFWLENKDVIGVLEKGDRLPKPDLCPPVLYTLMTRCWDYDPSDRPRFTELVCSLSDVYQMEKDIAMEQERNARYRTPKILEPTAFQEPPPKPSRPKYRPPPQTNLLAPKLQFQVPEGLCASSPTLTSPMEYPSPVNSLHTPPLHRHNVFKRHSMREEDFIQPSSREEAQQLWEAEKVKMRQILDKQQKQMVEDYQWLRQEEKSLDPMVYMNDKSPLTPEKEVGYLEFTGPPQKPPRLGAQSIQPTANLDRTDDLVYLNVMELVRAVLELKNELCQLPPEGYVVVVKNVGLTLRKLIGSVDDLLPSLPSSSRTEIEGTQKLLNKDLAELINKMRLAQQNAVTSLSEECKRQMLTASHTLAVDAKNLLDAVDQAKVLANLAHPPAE

[16] = molecular target: T2, Corticotropin-releasing factor receptor 2/Corticotropin-releasing factor-binding protein (Homo sapiens, UniProt P24387+Q13324); experiment: activators of CRF receptor 2 with binding protein – uHTS hits, confirmation (AID 602473); format: functional; settings: read-out: EC50_Mean
T2 sequence (Q13324 whole entry): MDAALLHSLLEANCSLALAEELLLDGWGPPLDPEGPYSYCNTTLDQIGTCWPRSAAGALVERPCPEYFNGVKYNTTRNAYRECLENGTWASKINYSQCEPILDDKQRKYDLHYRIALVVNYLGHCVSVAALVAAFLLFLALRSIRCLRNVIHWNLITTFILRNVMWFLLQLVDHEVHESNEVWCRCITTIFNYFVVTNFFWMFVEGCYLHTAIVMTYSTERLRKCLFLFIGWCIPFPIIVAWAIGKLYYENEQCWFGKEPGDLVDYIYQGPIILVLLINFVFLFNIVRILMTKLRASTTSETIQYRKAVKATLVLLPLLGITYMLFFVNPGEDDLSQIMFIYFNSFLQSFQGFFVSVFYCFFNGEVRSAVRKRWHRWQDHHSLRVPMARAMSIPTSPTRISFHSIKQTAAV
T2 sequence (P24387 whole entry): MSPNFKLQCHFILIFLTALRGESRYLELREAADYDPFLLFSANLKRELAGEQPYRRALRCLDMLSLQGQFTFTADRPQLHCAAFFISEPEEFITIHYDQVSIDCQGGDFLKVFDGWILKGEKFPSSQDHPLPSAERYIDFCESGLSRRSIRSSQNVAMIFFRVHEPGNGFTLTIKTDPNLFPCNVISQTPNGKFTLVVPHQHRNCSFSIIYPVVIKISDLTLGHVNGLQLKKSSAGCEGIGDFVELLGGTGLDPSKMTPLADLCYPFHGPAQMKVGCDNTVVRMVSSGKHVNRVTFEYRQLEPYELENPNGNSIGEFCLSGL

Chain of Ion channel NompC (Q7T1G6 whole entry): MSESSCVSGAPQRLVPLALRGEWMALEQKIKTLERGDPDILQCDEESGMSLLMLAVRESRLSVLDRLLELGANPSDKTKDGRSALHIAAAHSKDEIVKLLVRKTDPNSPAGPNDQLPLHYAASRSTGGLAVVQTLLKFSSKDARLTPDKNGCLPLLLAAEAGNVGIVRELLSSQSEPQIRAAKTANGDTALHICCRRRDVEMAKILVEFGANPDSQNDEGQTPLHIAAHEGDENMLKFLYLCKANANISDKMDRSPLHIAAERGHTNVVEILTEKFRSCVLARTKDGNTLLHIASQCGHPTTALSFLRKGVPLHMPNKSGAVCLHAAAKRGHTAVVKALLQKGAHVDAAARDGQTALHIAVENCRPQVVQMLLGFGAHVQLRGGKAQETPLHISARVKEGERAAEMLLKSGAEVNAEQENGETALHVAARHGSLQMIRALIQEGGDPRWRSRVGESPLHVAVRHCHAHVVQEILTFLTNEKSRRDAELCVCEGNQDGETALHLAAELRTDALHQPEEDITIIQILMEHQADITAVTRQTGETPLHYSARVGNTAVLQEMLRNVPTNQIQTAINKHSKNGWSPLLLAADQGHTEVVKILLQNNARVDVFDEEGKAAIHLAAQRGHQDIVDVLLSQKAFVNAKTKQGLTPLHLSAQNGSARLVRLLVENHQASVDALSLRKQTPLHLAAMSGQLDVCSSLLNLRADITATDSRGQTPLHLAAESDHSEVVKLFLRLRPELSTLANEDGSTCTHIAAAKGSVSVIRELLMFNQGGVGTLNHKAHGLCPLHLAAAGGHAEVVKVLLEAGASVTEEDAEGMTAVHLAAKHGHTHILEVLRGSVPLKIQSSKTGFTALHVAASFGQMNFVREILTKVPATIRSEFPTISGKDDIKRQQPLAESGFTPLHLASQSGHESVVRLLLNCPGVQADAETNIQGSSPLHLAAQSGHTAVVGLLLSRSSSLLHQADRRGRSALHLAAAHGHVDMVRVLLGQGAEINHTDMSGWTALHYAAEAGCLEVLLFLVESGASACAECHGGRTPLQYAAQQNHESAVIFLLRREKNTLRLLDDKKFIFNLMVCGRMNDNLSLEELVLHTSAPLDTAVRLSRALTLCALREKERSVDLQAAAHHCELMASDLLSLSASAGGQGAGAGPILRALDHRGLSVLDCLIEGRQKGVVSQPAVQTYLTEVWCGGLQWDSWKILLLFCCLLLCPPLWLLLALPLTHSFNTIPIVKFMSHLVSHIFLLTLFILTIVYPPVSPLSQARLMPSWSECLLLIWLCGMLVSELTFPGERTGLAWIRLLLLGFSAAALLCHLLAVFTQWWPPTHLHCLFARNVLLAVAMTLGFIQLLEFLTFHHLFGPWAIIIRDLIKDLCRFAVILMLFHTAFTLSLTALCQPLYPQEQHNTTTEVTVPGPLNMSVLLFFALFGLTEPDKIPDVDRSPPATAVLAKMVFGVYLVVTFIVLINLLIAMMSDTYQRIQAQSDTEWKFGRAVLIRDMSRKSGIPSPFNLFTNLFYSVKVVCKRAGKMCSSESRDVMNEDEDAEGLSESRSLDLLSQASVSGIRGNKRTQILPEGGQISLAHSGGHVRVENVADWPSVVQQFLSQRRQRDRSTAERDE

With COc1ccc(N2C(=O)C(F)(F)C2c2ccccc2F)cc1 (centres undefined) the EC50 [1] was > 29.9 µM (not active) and the EC50 [2] was 3.96 µM (active).

In the case of Cc1cccc(C)c1Nc1nc2ccccc2o1, the IC50 [3] was 26.7 µM (active).

For CCCCC1=NN2C(=N)/C(=C/c3c[nH]c4ccccc34)C(=O)N=C2S1, the IC50 [3] was 61.7 µM (active).

For Cc1cc(Cl)cc(C)c1OCCn1ccnc1, the CC50 [4] was 33.5 µM (active) and the IC50 [5] was 32.9 µM (active).

With O=C(c1ccc(F)cc1)N1CCN2C(=O)c3ccccc3C12c1ccccc1 (centres undefined) the IC50 [5] was 31.2 µM (active).

For CC(C)C[C@@H](CC(=O)N[C@@H](CCC(=O)O)CC(=O)O)NC(=O)[C@@H]1CCCC[C@H]1NC(=O)C[C@@H](NC(=O)C[C@H](CO)NC(=O)[C@@H]1CCCC[C@H]1N)C(C)C, the AC50 [6] was 20 µM (inconclusive).

For Cc1cc(Cl)ccc1C(=O)C1CCCN(C(=O)c2snnc2C)C1 (centres undefined), the EC50 [7] was > 120 µM (not active).

In the case of COc1ccc(OC)c(N/C=C/C(=O)c2ccccc2)c1, the EC50 [8] was 1.35 µM (active), the EC50 [9] was 276 nM (active) and the EC50 [10] was 3.8 µM (active). The EC50 [11] was 982 nM (active), the EC50 [12] was 476 nM (inconclusive) and the IC50 [13] was > 39.8 µM (not active). For the same molecule, the EC50 [14] was 6.32 µM (inconclusive).

With CC(=O)OCC1OC(C#Cc2ccc(C(C)(C)C)cc2)C=CC1OC(C)=O (centres undefined) the AC50 [6] was 6.31 µM (inconclusive).

For COc1cc(/N=C/c2c(O)[nH]c3ccccc23)cc(OC)c1OC, the EC50 [10] was 0.108 µM (active), the IC50 [15] was 3.15 µM (active) and the IC50 [13] was > 39.8 µM (not active). For the same molecule, the EC50 [14] was < 0.1 µM (active).

In the case of COc1ccccc1N(CC(=O)N1CCCCC1)S(=O)(=O)c1ccccc1, the EC50 [16] was 8.61 µM (active), the EC50 [1] was 12.4 µM (not active) and the EC50 [2] was 0.59 µM (active).
